# Source: patent publication US6379649B1, “Imidazo(1,2-a)pyridines as peripheral benzodiazepine receptor binding agents” (Australian Nuclear Science & Technology Organisation, priority 1998, dated 2002)
# Assay: In vivo biodistribution of radiolabelled compounds in rats
# From the text: In vivo biodistribution of radiolabelled compounds of the invention indicated high uptake in the tissues which have known PBR sites. Tables 2 to 4 show the biodistribution of the compounds of Examples 1-3, in which the iodine atom is radiolabelled, when administered to rats.
smiles,measurement,setting,value
CCN(CC)C(=O)Cc1c(-c2ccc([123I])cc2)nc2ccc(Cl)cn12 [^123-I Example 3],Biodistribution (% ID/g organ) Adrenals,5 Min,2.11 ± 0.12 % ID/g organ
same,Biodistribution (% ID/g organ) Adrenals,15 Min,2.03 ± 0.8 % ID/g organ
same,Biodistribution (% ID/g organ) Adrenals,24 Hrs,4.56 ± 0.74 % ID/g organ
same,Biodistribution (% ID/g organ) Adrenals,30 Min,2.42 ± 0.36 % ID/g organ
same,Biodistribution (% ID/g organ) Adrenals,48 Hrs,4.87 ± 0.55 % ID/g organ
same,Biodistribution (% ID/g organ) Adrenals,60 Min,2.83 ± 0.41 % ID/g organ
same,Biodistribution (% ID/g organ) Adrenals,180 Min,4.1 ± 0.80 % ID/g organ
same,Biodistribution (% ID/g organ) Adrenals,240 Min,4.32 ± 0.60 % ID/g organ
same,Biodistribution (% ID/g organ) Adrenals,360 Min,5.28 ± 0.95 % ID/g organ
same,Biodistribution (% ID/g organ) Adrenals,480 Min,4.22 ± 0.12 % ID/g organ
same,Biodistribution (% ID/g organ) Blood,5 Min,0.46 ± 0.08 % ID/g organ
same,Biodistribution (% ID/g organ) Blood,15 Min,0.16 ± 0.02 % ID/g organ
same,Biodistribution (% ID/g organ) Blood,24 Hrs,0.02 ± 0.001 % ID/g organ
same,Biodistribution (% ID/g organ) Blood,30 Min,0.12 ± 0.03 % ID/g organ
same,Biodistribution (% ID/g organ) Blood,48 Hrs,0.01 ± 0.001 % ID/g organ
same,Biodistribution (% ID/g organ) Blood,60 Min,0.06 ± 0.02 % ID/g organ
same,Biodistribution (% ID/g organ) Blood,180 Min,0.04 ± 0.001 % ID/g organ
same,Biodistribution (% ID/g organ) Blood,240 Min,0.05 ± 0.001 % ID/g organ
same,Biodistribution (% ID/g organ) Blood,360 Min,0.04 ± 0.001 % ID/g organ
same,Biodistribution (% ID/g organ) Blood,480 Min,0.03 ± 0.001 % ID/g organ
same,Biodistribution (% ID/g organ) Brain,5 Min,0.33 ± 0.04 % ID/g organ
same,Biodistribution (% ID/g organ) Brain,15 Min,0.2 ± 0.02 % ID/g organ
same,Biodistribution (% ID/g organ) Brain,24 Hrs,0.01 ± 0.001 % ID/g organ
same,Biodistribution (% ID/g organ) Brain,30 Min,0.15 ± 0.01 % ID/g organ
same,Biodistribution (% ID/g organ) Brain,48 Hrs,0.01 ± 0.001 % ID/g organ
same,Biodistribution (% ID/g organ) Brain,60 Min,0.08 ± 0.02 % ID/g organ
same,Biodistribution (% ID/g organ) Brain,180 Min,0.05 ± 0.001 % ID/g organ
same,Biodistribution (% ID/g organ) Brain,240 Min,0.05 ± 0.01 % ID/g organ
same,Biodistribution (% ID/g organ) Brain,360 Min,0.05 ± 0.02 % ID/g organ
same,Biodistribution (% ID/g organ) Brain,480 Min,0.03 ± 0.001 % ID/g organ
same,Biodistribution (% ID/g organ) Heart,5 Min,2.63 ± 0.30 % ID/g organ
same,Biodistribution (% ID/g organ) Heart,15 Min,2.39 ± 035 % ID/g organ
same,Biodistribution (% ID/g organ) Heart,24 Hrs,0.39 ± 0.03 % ID/g organ
same,Biodistribution (% ID/g organ) Heart,30 Min,2.44 ± 0.28 % ID/g organ
same,Biodistribution (% ID/g organ) Heart,48 Hrs,0.17 ± 0.002 % ID/g organ
same,Biodistribution (% ID/g organ) Heart,60 Min,2.65 ± 0.63 % ID/g organ
same,Biodistribution (% ID/g organ) Heart,180 Min,2.59 ± 0.16 % ID/g organ
same,Biodistribution (% ID/g organ) Heart,240 Min,2.49 ± 0.22 % ID/g organ
same,Biodistribution (% ID/g organ) Heart,360 Min,2.13 ± 0.45 % ID/g organ
same,Biodistribution (% ID/g organ) Heart,480 Min,1.48 ± 0.12 % ID/g organ
same,Biodistribution (% ID/g organ) Kidney,5 Min,1.73 ± 0.38 % ID/g organ
same,Biodistribution (% ID/g organ) Kidney,15 Min,2.11 ± 0.31 % ID/g organ
same,Biodistribution (% ID/g organ) Kidney,24 Hrs,0.25 ± 0.03 % ID/g organ
same,Biodistribution (% ID/g organ) Kidney,30 Min,2.31 ± 0.02 % ID/g organ
same,Biodistribution (% ID/g organ) Kidney,48 Hrs,0.12 ± 0.01 % ID/g organ
same,Biodistribution (% ID/g organ) Kidney,60 Min,1.87 ± 0.66 % ID/g organ
same,Biodistribution (% ID/g organ) Kidney,180 Min,1.71 ± 0.17 % ID/g organ
same,Biodistribution (% ID/g organ) Kidney,240 Min,1.37 ± 0.18 % ID/g organ
same,Biodistribution (% ID/g organ) Kidney,360 Min,1.43 ± 0.25 % ID/g organ
same,Biodistribution (% ID/g organ) Kidney,480 Min,0.87 ± 0.15 % ID/g organ
same,Biodistribution (% ID/g organ) Liver,5 Min,0.87 ± 0.13 % ID/g organ
same,Biodistribution (% ID/g organ) Liver,15 Min,0.93 ± 0.06 % ID/g organ
same,Biodistribution (% ID/g organ) Liver,24 Hrs,0.06 ± 0.001 % ID/g organ
same,Biodistribution (% ID/g organ) Liver,30 Min,0.76 ± 0.01 % ID/g organ
same,Biodistribution (% ID/g organ) Liver,48 Hrs,0.04 ± 0.001 % ID/g organ
same,Biodistribution (% ID/g organ) Liver,60 Min,0.41 ± 0.14 % ID/g organ
same,Biodistribution (% ID/g organ) Liver,180 Min,0.28 ± 0.02 % ID/g organ
same,Biodistribution (% ID/g organ) Liver,240 Min,0.23 ± 0.03 % ID/g organ
same,Biodistribution (% ID/g organ) Liver,360 Min,0.23 ± 0.02 % ID/g organ
same,Biodistribution (% ID/g organ) Liver,480 Min,0.16 ± 0.01 % ID/g organ
same,Biodistribution (% ID/g organ) Lungs,5 Min,13.16 ± 1.24 % ID/g organ
same,Biodistribution (% ID/g organ) Lungs,15 Min,6.98 ± 1.87 % ID/g organ
same,Biodistribution (% ID/g organ) Lungs,24 Hrs,0.31 ± 0.06 % ID/g organ
same,Biodistribution (% ID/g organ) Lungs,30 Min,4.91 ± 0.22 % ID/g organ
same,Biodistribution (% ID/g organ) Lungs,48 Hrs,0.17 ± 0.02 % ID/g organ
same,Biodistribution (% ID/g organ) Lungs,60 Min,2.76 ± 0.80 % ID/g organ
same,Biodistribution (% ID/g organ) Lungs,180 Min,1.63 ± 0.07 % ID/g organ
same,Biodistribution (% ID/g organ) Lungs,240 Min,1.38 ± 0.09 % ID/g organ
same,Biodistribution (% ID/g organ) Lungs,360 Min,1.21 ± 0.27 % ID/g organ
same,Biodistribution (% ID/g organ) Lungs,480 Min,0.75 ± 0.07 % ID/g organ
same,Biodistribution (% ID/g organ) Olfactive bulbs,5 Min,0.44 ± 0.08 % ID/g organ
same,Biodistribution (% ID/g organ) Olfactive bulbs,15 Min,0.31 ± 0.03 % ID/g organ
same,Biodistribution (% ID/g organ) Olfactive bulbs,24 Hrs,0.09 ± 0.001 % ID/g organ
same,Biodistribution (% ID/g organ) Olfactive bulbs,30 Min,0.26 ± 0.03 % ID/g organ
same,Biodistribution (% ID/g organ) Olfactive bulbs,48 Hrs,0.07 ± 0.001 % ID/g organ
same,Biodistribution (% ID/g organ) Olfactive bulbs,60 Min,0.2 ± 0.07 % ID/g organ
same,Biodistribution (% ID/g organ) Olfactive bulbs,180 Min,0.16 ± 0.02 % ID/g organ
same,Biodistribution (% ID/g organ) Olfactive bulbs,240 Min,0.18 ± 0.03 % ID/g organ
same,Biodistribution (% ID/g organ) Olfactive bulbs,360 Min,0.16 ± 0.04 % ID/g organ
same,Biodistribution (% ID/g organ) Olfactive bulbs,480 Min,0.16 ± 0.03 % ID/g organ
